Measurements: patent US12655142B2 (Merck Patent GmbH, priority 2019, dated 2026)

Experiments:
[1] = biological target: T1, GIST430/654 cell line expressing mutated constitutively active cKIT receptor tyrosine kinase (Δ560-576 deletion and V654A point mutation) (Homo sapiens, UniProt P10721, DEL560-576/V654A); assay: Cellular cKIT autophosphorylation (phospho-Y307-cKIT, Luminex bead assay) in GIST430/654 cells; assay type: cell-based; conditions: compounds 45 min, read-out: GIST 430/654 IC50
T1 construct: endogenous in cells; host or cells: GIST430/654 cells
In short: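 Phospho-Y307 cKIT in lysates was measured on a Luminex bead assay, with total-cKIT capture overnight at 4 °C and phosphospecific plus PE secondary detection. Cells had 45 min exposure to a compound dilution series the day after plating: GIST430 (Δ560-576) or GIST430/654 (Δ560-576/V654A, grown with 100 nM imatinib). IC50 values are relative to 0.3% DMSO-treated cells.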

[2] = Determination of Efflux-Ratio (ER) in Caco-2 cells; conditions: human, Caco-2, pH 7.4
c-Kit(V654A) = biological target: T2, c-Kit(V654A) (Homo sapiens, UniProt P10721, V654A); assay: c-Kit(V654A) assay (33P-ATP filter binding kinase assay); assay type: biochemical; conditions: recombinant human c-Kit aa 544-end V654A, ATP 200 μM
T2 construct: recombinant human c-Kit, amino acids 544-end containing the V654A mutation; GST (N)
In short: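 Radiometric filter-binding read-out: substrate 33P incorporation counted by scintillation after P30 filtermat washes in 75 mM phosphoric acid and methanol. Enzyme: N-GST recombinant human c-Kit aa 544-end carrying V654A.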

T2 sequence (P10721 544-976 V654A): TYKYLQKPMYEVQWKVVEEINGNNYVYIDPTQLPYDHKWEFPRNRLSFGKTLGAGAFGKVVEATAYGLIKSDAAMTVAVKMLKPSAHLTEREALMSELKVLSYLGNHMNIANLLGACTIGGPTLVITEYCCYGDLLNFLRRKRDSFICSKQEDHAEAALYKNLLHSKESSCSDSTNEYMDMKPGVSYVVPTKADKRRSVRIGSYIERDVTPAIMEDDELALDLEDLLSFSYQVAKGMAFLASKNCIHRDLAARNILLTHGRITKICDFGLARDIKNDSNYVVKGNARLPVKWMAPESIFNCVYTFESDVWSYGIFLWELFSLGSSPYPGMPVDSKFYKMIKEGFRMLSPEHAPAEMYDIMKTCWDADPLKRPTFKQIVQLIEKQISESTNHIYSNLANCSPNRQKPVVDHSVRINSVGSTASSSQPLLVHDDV
T1 sequence (P10721 with tags, fused parts or gaps DEL560-576/V654A): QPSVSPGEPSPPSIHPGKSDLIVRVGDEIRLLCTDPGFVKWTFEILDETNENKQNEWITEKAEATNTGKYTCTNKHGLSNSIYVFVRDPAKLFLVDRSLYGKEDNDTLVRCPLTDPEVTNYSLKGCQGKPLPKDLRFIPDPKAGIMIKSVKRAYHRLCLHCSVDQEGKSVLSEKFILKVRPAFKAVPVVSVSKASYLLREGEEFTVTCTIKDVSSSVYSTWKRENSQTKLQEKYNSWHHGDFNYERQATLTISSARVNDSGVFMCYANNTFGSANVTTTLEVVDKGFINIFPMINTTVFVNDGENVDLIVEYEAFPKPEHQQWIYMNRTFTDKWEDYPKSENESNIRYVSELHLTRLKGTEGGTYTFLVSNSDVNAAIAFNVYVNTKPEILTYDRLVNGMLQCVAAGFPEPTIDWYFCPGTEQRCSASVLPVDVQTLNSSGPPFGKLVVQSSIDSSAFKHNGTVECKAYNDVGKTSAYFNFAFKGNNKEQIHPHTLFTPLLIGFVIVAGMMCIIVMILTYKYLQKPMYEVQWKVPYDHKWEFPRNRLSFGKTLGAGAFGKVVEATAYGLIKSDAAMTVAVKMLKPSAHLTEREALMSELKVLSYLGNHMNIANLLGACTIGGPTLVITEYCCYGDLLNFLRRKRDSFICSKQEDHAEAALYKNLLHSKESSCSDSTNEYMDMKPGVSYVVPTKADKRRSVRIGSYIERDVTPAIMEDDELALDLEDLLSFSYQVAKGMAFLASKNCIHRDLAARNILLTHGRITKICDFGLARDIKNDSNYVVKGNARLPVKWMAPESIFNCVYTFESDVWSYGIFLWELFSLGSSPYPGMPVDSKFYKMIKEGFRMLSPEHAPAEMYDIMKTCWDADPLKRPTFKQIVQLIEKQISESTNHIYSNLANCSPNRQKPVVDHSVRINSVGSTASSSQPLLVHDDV

With `Cn1ncc(-c2ccc(CNc3cc(-c4cnc5cc(OCC6CCNCC6)ccn45)ncn3)cc2)n1` [A165] the IC50 [1] was 57 nM, the efflux ratio at 2 h, 1 μM [2] was > 50 and the IC50 (c-Kit(V654A)) was 2 nM.
With `Cn1cc(-c2ccc(CNc3cc(-c4cnc5cc(OCC6CCNCC6)ccn45)ncn3)cc2)cn1` [A166, [4-(1-methyl-1H-pyrazol-4-yl)-benzyl]-{6-[7-(piperidin-4-ylmethoxy)-imidazo[1,2-a]pyridin-3-yl]-pyrimidin-4-yl}-amine] the IC50 [1] was 120 nM, the efflux ratio at 2 h, 1 μM [2] was > 50 and the IC50 (c-Kit(V654A)) was 4 nM.
In the case of `Cn1cc(-c2ccc(CNc3cc(-c4cnc5cc(OCC6CNC6)ccn45)ncn3)cc2)cn1` [A167, 6-{7-[(azetidin-3-yl)methoxy]imidazo[1,2-a]pyridin-3-yl}-N-{[4-(1-methyl-1H-pyrazol-4-yl)phenyl]methyl}pyrimidin-4-amine], the IC50 [1] is reported as 500 nM, the efflux ratio at 2 h, 1 μM [2] is reported as > 50 and the IC50 (c-Kit(V654A)) is reported as 7.5 nM.
With `Cn1cc(-c2ccc(CNc3cc(-c4cnc5cc(OCCC6CCNC6)ccn45)ncn3)cc2)cn1` (stereo not drawn) [A175, [4-(1-methyl-1H-pyrazol-4-yl)-benzyl]-{6-[7-(2-pyrrolidin-3-yl-ethoxy)-imidazo[1,2-a]pyridin-3-yl]-pyrimidin-4-yl}-amine] the IC50 [1] was 480 nM, the efflux ratio at 2 h, 1 μM [2] was > 50 and the IC50 (c-Kit(V654A)) was 9.8 nM.
With `Cn1ncc(-c2ccc(CNc3cc(-c4cnc5cc(OCCC6CCNC6)ccn45)ncn3)cc2)n1` (stereo not drawn) [A176, [4-(2-methyl-2H-[1,2,3]triazol-4-yl)-benzyl]-{6-[7-(2-pyrrolidin-3-yl-ethoxy)-imidazo[1,2-a]pyridin-3-yl]-pyrimidin-4-yl}-amine] the IC50 [1] was 84 nM, the efflux ratio at 2 h, 1 μM [2] was > 50 and the IC50 (c-Kit(V654A)) was 3.2 nM.
For `Cn1ncc(-c2ccc(CNc3cc(-c4cnc5cc(N6CCC(CCO)C6)ccn45)ncn3)cc2)n1` (stereo not drawn) [A179, 2-[1-(3-{6-[4-(2-methyl-2H-[1,2,3]triazol-4-yl)-benzylamino]-pyrimidin-4-yl}-imidazo[1,2-a]pyridin-7-yl)-pyrrolidin-3-yl]-ethanol], the IC50 [1] was 24 nM, the efflux ratio at 2 h, 1 μM [2] was > 50 and the IC50 (c-Kit(V654A)) was 3.1 nM.
For `Cn1cc(-c2ccc(CNc3cc(-c4cnc5cc(OCC6CN(C7COC7)C6)ccn45)ncn3)cc2)cn1` [A183, N-{[4-(1-methyl-1H-pyrazol-4-yl)phenyl]methyl}-6-(7-{[1-(oxetan-3-yl)azetidin-3-yl]methoxy}imidazo[1,2-a]pyridin-3-yl)pyrimidin-4-amine], the IC50 [1] was 27 nM, the efflux ratio at 2 h, 1 μM [2] was < 15 and the IC50 (c-Kit(V654A)) was 7.7 nM.
For `Cn1cc(-c2ccc(CNc3cc(-c4cnc5cc(OCCCN6CCN(C7COC7)CC6)ccn45)ncn3)cc2)cn1` [A184, [4-(1-methyl-1H-pyrazol-4-yl)-benzyl]-(6-{7-[3-(4-oxetan-3-yl-piperazin-1-yl)-propoxy]-imidazo[1,2-a]pyridin-3-yl}-pyrimidin-4-yl)-amine], the IC50 [1] was 76 nM, the efflux ratio at 2 h, 1 μM [2] was < 15 and the IC50 (c-Kit(V654A)) was 20 nM.
In the case of `Cn1ncc(-c2ccc(CNc3cc(-c4cnc5cc(OCC6CCN(C7CC7)CC6)ccn45)ncn3)cc2)n1` [A186, {6-[7-(1-cyclopropyl-piperidin-4-ylmethoxy)-imidazo[1,2-a]pyridin-3-yl]-pyrimidin-4-yl}-[4-(2-methyl-2H-[1,2,3]triazol-4-yl)-benzyl]-amine], the IC50 [1] is reported as 80 nM, the efflux ratio at 2 h, 1 μM [2] is reported as < 15 and the IC50 (c-Kit(V654A)) is reported as 7 nM.
In the case of `Cn1ncc(-c2ccc(CNc3cc(-c4cnc5cc(OCC6CCN(CC#N)CC6)ccn45)ncn3)cc2)n1` [A189, [4-(3-{6-[4-(2-methyl-2H-[1,2,3]triazol-4-yl)-benzylamino]-pyrimidin-4-yl}-imidazo[1,2-a]pyridin-7-yloxymethyl)-piperidin-1-yl]-acetonitrile], the IC50 [1] is reported as 160 nM, the efflux ratio at 2 h, 1 μM [2] is reported as < 15 and the IC50 (c-Kit(V654A)) is reported as 9.8 nM.
For `Cn1cc(-c2ccc(CNc3cc(-c4cnc5cc(OCC6CCN(CC(F)F)CC6)ccn45)ncn3)cc2)cn1` [A192, (6-{7-[1-(2,2-difluoro-ethyl)-piperidin-4-ylmethoxy]-imidazo[1,2-a]pyridin-3-yl}-pyrimidin-4-yl)-[4-(1-methyl-1H-pyrazol-4-yl)-benzyl]-amine], the IC50 [1] was 67 nM, the efflux ratio at 2 h, 1 μM [2] was < 15 and the IC50 (c-Kit(V654A)) was 28 nM.
For `Cn1cc(-c2ccc(CNc3cc(-c4cnc5cc(OCCN6CC[S+]([O-])CC6)ccn45)ncn3)cc2)cn1` [A194, [4-(1-methyl-1H-pyrazol-4-yl)-benzyl]-(6-{7-[2-(1-oxo-1|4-thiomorpholin-4-yl)-ethoxy]-imidazo[1,2-a]pyridin-3-yl}-pyrimidin-4-yl)-amine], the IC50 [1] was 92 nM, the efflux ratio at 2 h, 1 μM [2] was > 50 and the IC50 (c-Kit(V654A)) was 6.1 nM.
In the case of `Cn1cc(-c2ccc(CNc3cc(-c4cnc5cc(OCCN6Cc7ccncc7C6)ccn45)ncn3)cc2)cn1` [A195, (6-{7-[2-(1,3-dihydro-pyrrolo[3,4-c]pyridin-2-yl)-ethoxy]-imidazo[1,2-a]pyridin-3-yl}-pyrimidin-4-yl)-[4-(1-methyl-1H-pyrazol-4-yl)-benzyl]-amine], the IC50 [1] is reported as 72 nM, the efflux ratio at 2 h, 1 μM [2] is reported as < 15 and the IC50 (c-Kit(V654A)) is reported as 9.7 nM.
For `Cn1cc(-c2ccc(CNc3cc(-c4cnc5cc(OCCN6CCC(C)(F)CC6)ccn45)ncn3)cc2)cn1` [A196, (6-{7-[2-(4-fluoro-4-methyl-piperidin-1-yl)-ethoxy]-imidazo[1,2-a]pyridin-3-yl}-pyrimidin-4-yl)-[4-(1-methyl-1H-pyrazol-4-yl)-benzyl]-amine], the IC50 [1] was 140 nM, the efflux ratio at 2 h, 1 μM [2] was < 15 and the IC50 (c-Kit(V654A)) was 14 nM.
With `Cn1cc(-c2ccc(CNc3cc(-c4cnc5cc(OCCN6CCN(C7CC7)CC6)ccn45)ncn3)cc2)cn1` [A197, (6-{7-[2-(4-cyclopropyl-piperazin-1-yl)-ethoxy]-imidazo[1,2-a]pyridin-3-yl}-pyrimidin-4-yl)-[4-(1-methyl-1H-pyrazol-4-yl)-benzyl]-amine] the IC50 [1] was 150 nM, the efflux ratio at 2 h, 1 μM [2] was < 15 and the IC50 (c-Kit(V654A)) was 12 nM.
With `CN1CC2CCC(C1)N2CCOc1ccn2c(-c3cc(NCc4ccc(-c5cnn(C)c5)cc4)ncn3)cnc2c1` [A198, (6-{7-[2-(3-methyl-3,8-diaza-bicyclo[3.2.1]oct-8-yl)-ethoxy]-imidazo[1,2-a]pyridin-3-yl}-pyrimidin-4-yl)-[4-(1-methyl-1H-pyrazol-4-yl)-benzyl]-amine] the IC50 [1] was 120 nM, the efflux ratio at 2 h, 1 μM [2] was 15 to 50 and the IC50 (c-Kit(V654A)) was 10 nM.
In the case of `Cn1cc(-c2ccc(CNc3cc(-c4cnc5cc(OCCN6CC7CC6C[S+]7[O-])ccn45)ncn3)cc2)cn1` (stereo not drawn) [A199, [4-(1-methyl-1H-pyrazol-4-yl)-benzyl]-(6-{7-[2-(2-oxo-2|4-thia-5-aza-bicyclo[2.2.1]hept-5-yl)-ethoxy]-imidazo[1,2-a]pyridin-3-yl}-pyrimidin-4-yl)-amine], the IC50 [1] is reported as 100 nM, the efflux ratio at 2 h, 1 μM [2] is reported as > 50 and the IC50 (c-Kit(V654A)) is reported as 9.7 nM.
With `Cn1cc(-c2ccc(CNc3cc(-c4cnc5cc(OCCN6CCOCC(F)(F)C6)ccn45)ncn3)cc2)cn1` [A200, (6-{7-[2-(6,6-difluoro-[1,4]oxazepan-4-yl)-ethoxy]-imidazo[1,2-a]pyridin-3-yl}-pyrimidin-4-yl)-[4-(1-methyl-1H-pyrazol-4-yl)-benzyl]-amine] the IC50 [1] was 190 nM, the efflux ratio at 2 h, 1 μM [2] was < 15 and the IC50 (c-Kit(V654A)) was 27 nM.
With `Cn1cc(-c2ccc(CNc3cc(-c4cnc5cc(OCCN6CCN7CCOCC7C6)ccn45)ncn3)cc2)cn1` (stereo not drawn) [A201, (6-{7-[2-(hexahydro-pyrazino[2,1-c][1,4]oxazin-8-yl)-ethoxy]-imidazo[1,2-a]pyridin-3-yl}-pyrimidin-4-yl)-[4-(1-methyl-1H-pyrazol-4-yl)-benzyl]-amine] the IC50 [1] was 99 nM, the efflux ratio at 2 h, 1 μM [2] was < 15 and the IC50 (c-Kit(V654A)) was 13 nM.
For `Cn1cc(-c2ccc(CNc3cc(-c4cnc5cc(OCCN6CCC(F)(F)CC6)ccn45)ncn3)cc2)cn1` [A202, (6-{7-[2-(4,4-difluoro-piperidin-1-yl)-ethoxy]-imidazo[1,2-a]pyridin-3-yl}-pyrimidin-4-yl)-[4-(1-methyl-1H-pyrazol-4-yl)-benzyl]-amine], the IC50 [1] was 200 nM, the efflux ratio at 2 h, 1 μM [2] was < 15 and the IC50 (c-Kit(V654A)) was 17 nM.
With `Cn1cc(-c2ccc(CNc3cc(-c4cnc5cc(OCCN6CCn7cnnc7C6)ccn45)ncn3)cc2)cn1` [A203, (6-{7-[2-(5,6-dihydro-8H-[1,2,4]triazolo[4,3-a]pyrazin-7-yl)-ethoxy]-imidazo[1,2-a]pyridin-3-yl}-pyrimidin-4-yl)-[4-(1-methyl-1H-pyrazol-4-yl)-benzyl]-amine] the IC50 [1] was 420 nM, the efflux ratio at 2 h, 1 μM [2] was > 50 and the IC50 (c-Kit(V654A)) was 9.8 nM.
Compound `Cc1nc2n(n1)CCN(CCOc1ccn3c(-c4cc(NCc5ccc(-c6cnn(C)c6)cc5)ncn4)cnc3c1)C2` [A204, (6-{7-[2-(2-methyl-5,6-dihydro-8H-[1,2,4]triazolo[1,5-a]pyrazin-7-yl)-ethoxy]-imidazo[1,2-a]pyridin-3-yl}-pyrimidin-4-yl)-[4-(1-methyl-1H-pyrazol-4-yl)-benzyl]-amine] has an IC50 [1] of 170 nM, an efflux ratio at 2 h, 1 μM [2] of 15 to 50 and an IC50 (c-Kit(V654A)) of 12 nM.
For `CN(CC#N)CCOc1ccn2c(-c3cc(NCc4ccc(-c5cnn(C)c5)cc4)ncn3)cnc2c1` [A205, {methyl-[2-(3-{6-[4-(1-methyl-1H-pyrazol-4-yl)-benzylamino]-pyrimidin-4-yl}-imidazo[1,2-a]pyridin-7-yloxy)-ethyl]-amino}-acetonitrile], the IC50 [1] was 110 nM, the efflux ratio at 2 h, 1 μM [2] was < 15 and the IC50 (c-Kit(V654A)) was 10 nM.
For `Cn1cc(-c2ccc(CNc3cc(-c4cnc5cc(OCCN6CC(C)(C#N)C6)ccn45)ncn3)cc2)cn1` [A206], the IC50 [1] was 100 nM, the efflux ratio at 2 h, 1 μM [2] was < 15 and the IC50 (c-Kit(V654A)) was 7.1 nM.
